Results on one compound are retold here after ChEMBL document CHEMBL5215006, “Antitumor Activity of Piceamycin by Upregulation of N-Myc Downstream-Regulated Gene 1 in Human Colorectal Cancer Cells” (J Nat Prod, 2022).

The nature of this data set: Toxicity in Balb/c mouse xenografted with human HCT-116 cells assessed as body weight change at 10 mg/kg,ip administrated for 18 days by 3 times per week. It counts as organism-based. The note with it: in vivo, 432 h, time 18 day.

Molecules are shown by their SMILES.

Take `CCc1c2c(nc3ccc(OC(=O)N4CCC(N5CCCCC5)CC4)cc13)-c1cc3c(c(=O)n1C2)COC(=O)[C@]3(O)CC` [IRINOTECAN]: the Activity entry was “Toxic”.
